Reference: US12351819B2, “Method for removing undifferentiated pluripotent stem cells” (priority 2017, dated 2025)

Tests used:
[1] = tested on: hESC-hepatocyte endoderm cells; experiment: LDH cytotoxicity assay in hESC-derived hepatocyte endoderm; type: cell-based, human; details: Table 1
Procedure: This protocol followed a method previously published in Nature Protocols^36. The hESCs were detached by 0.5 mM EDTA (Life Technologies, Camarillo, C, USA), seeded on VTN-N coated culture plates (Corning) and maintained for 48 hours in mTeSR 1 medium. Then, the medium was refreshed daily for all following steps. On days 1-2, the medium was replaced with fresh CDM-PVA (consisting of 0.5 g of PVA (Sigma) dissolved in 250 ml of IMDM/F-12, GlutaMAX (Invitrogen), 250 ml of IMDM (Invitrogen), 5 ml of chemically defined lipid concentrate (Invitrogen), 20 of thioglycerol 97% (Sigma), 350 of insulin (10 mg/ml; Roche), 250 of transferrin (30 mg/ml; Roche) plus Activin A (100 ng/ml; R&D), bFGF (80 ng/ml; R&D), BMP4 (10 ng/ml; R&D), and […] of LY-294002 (Promega). On day 3, the cells were differentiated in RPMI Medium supplemented with Activin A (100 ng/ml) and bFGF (80 ng/ml). On days 4-6, the cells were expanded in RPMI medium supplemented with Activin A (50 ng/ml). On day 7, the cells were passaged and re-plated 105,000 cells/cm^2 cells in VTN-N coated culture plates in RPMI containing Activin A (50 ng/ml) and Y-27632 2HCl (10 μM Selleck-chem, Houston, TX, USA and Munich, Germany). Then, the cells were maintained in RPMI+Activin A (50 ng/ml) on days 8-11. The cells were differentiated into the hepatocyte endoderm and analyzed following the drug treatments. The expression of alpha-fetoprotein (A0008, Dako, Santa Clara, CA, USA) was analyzed in the hepatocyte endoderm via immunofluorescence staining.

H9 hESC-MSCs = details: 2.5 μM, 24 hours
Procedure: (§1) The supernatants of cells treated with digoxin […], lanatoside C 2.5 μm, or DMSO solvent control for 24 hours were harvested. The released LDH was measured using CytoTox 96 […] assay according to the manufacture's instruction (Promega, Southampton, UK). The supernatants and reagents were incubated at room temperature for 20 minutes and then the reaction was stopped by Stop Solution. The absorbance at 490 nm was measured using a plate-reading spectrophotometer (Benchmark Plus Microplate Spectrophotometer System, BIO-RAD, CA, USA).
According to the report from Dr. Xu and colleagues^30, hESCs were cultured with 10 ng/ml BMP4 and 1 μM of A8301 for 5 days. Next, the cells were passaged on the gelatin-coated plate and the culture medium was switched to MSC culture medium [Minimum Essential Medium Eagle Alpha Modification (αMEM) medium supplemented with 20% fetal bovine serum (FBS), 1-glutamine (Gluta-MAX), 1× nonessential amino acids]. Cells were expanded within passage 5, and CD73^+ (11-0793, ThermoFisher Scientific) and CD105^+ (12-1057, ThermoFisher Scientific) double positive cells were sorted.
hESC-derived MSCs were trypsinized and washed with PBS. Then cells were incubated with anti-human CD73 FITC (ThermoFisher Scientific) and anti-human CD105 PE (ThermoFisher Scientific) for 15 minutes at 4° C. Cells were washed cells with PBS for three times. CD73^+/CD105^+ cells were sorted with the cell sorter (BD FACSAria II, BD Biosciences). Sorted cells were maintained in MSC culture medium.

hESCs = experiment: Cell colony and morphology under bright field, hESCs; type: cell-based, human; details: 2.5 μM, 12 hours and 24 hours
Procedure: Scale bar: 500 μm. […] The samples were normalized to the DMSO-treated hESCs. ***P<0.001; **P<0.01; n.s. not significant. Data are shown as the mean SD.
We investigated whether cardiac glycosides affected the viability of hESCs or other cell types. First, we treated undifferentiated hESCs with digoxin and lanatoside C for 12 hours and 24 hours, respectively. […] To investigate the cytotoxic effect of the cardiac glycosides, we measured the release of LDH in the culture supernatants after the hESCs were treated with digoxin or Lanatoside C for 24 hours (FIG. 1C).

[2] = tested on: cleaved PARP, caspase-3, caspase-7 in hESCs; experiment: Western blot of apoptotic markers, hESCs; type: cell-based, human; details: 2.5 μM, 12 hours
Procedure: (§2) RIPA buffer was used to harvest cell lysates (RIPA buffer: NaCl 150 mM, Tris pH 8.0 50 mM, EDTApH 8.0 5 mM, NP-40 1.0%, SDS 0.5%, sodium deoxycholate 0.1%). Western blot analyses were performed as previously described with different types of primary antibodies^29. The primary antibody includes anti-β-actin (A5441; Sigma), anti-Oct4 (sc-9081; Santa Cruz Biotechnology, Santa Cruz, CA, USA), anti-Nanog (3580; Cell Signaling Technology, Danvers, MA, USA), apoptosis antibody kit (9915; Cell Signaling Technology), ATP1A1 (3010; Cell Signaling Technology), and ATP1A2 (16836-1-AP; Proteintech™) were used. After reaction at 4° C. overnight, the blots were incubated with goat anti-mouse- or goat anti-rabbit antibody conjugated with horseradish peroxidase (Jackson ImmunoResearch Inc). The chemiluminescent substrate (WBKLS0500; Millipore, Darmstadt, Germany) was used to detect the blots. Fujifilm LAS-4000 (FUJIFILM, Tokyo, Japan) was used to take the images.

hESCs (H9) = details: for cytotoxic effect (LDH release) in hESCs: 2.5 μM, 24 hours, vs DMSO; for LDH assay positive, hESCs: Table 1
Procedure: (§3) The hESC line H9 was purchased from WiCells (Madison, WI, USA)^27. Another hESC line, HUES6, was kindly provided by Dr. Douglas A. Melton (Harvard University, Boston, MA, USA)^28. Cells were maintained on the feeder cells and cultured in Dulbecco's modified Eagle's medium (DMEM)/F12 supplemented with 20% knockout serum replacement, 2 mM L-glutamine, 1% nonessential amino acids, 4 ng/mL human bFGF, and 0.1 mM 2-mercaptoethanol. For the feeder cells culture, C57BL/6 mouse embryonic fibroblasts (MEF) were cultured in the DMEM with 10% FBS and treated cells with 0.01 mg/ml mitomycin C 2-6 hours for inactivation. For the feeder-free culture, hESCs were seeded on the Matrigel Matrix (BD Biosciences, San Jose, CA, USA) coated culture plates and maintained by conditioned medium of MEF (C57BL/6). hBMMSCs were cultured in mesenPRO RS™ kit (Life Technologies, Camarillo, CA, USA). All cells were cultured in a humidified atmosphere containing 5% CO2 at 37° C.
as §1

[3] = tested on: human bone marrow mesenchymal stem cells (hBMMSCs); details: 2.5 μM, 24 hours, vs DMSO
Procedure: as §3, §1

[4] = tested on: cleaved PARP, caspase3, caspase7 in hESC-MSCs; experiment: Western blot of apoptotic markers, hESC-MSCs; type: cell-based, human; details: 2.5 μM, 12 hours
Procedure: as §2

| SMILES | LDH assay positive, hepatocyte endoderm cells [1] | cytotoxicity (LDH release) in H9 hESC-MSCs (H9 hESC-MSCs) | cell death (bright field morphology) in hESCs (hESCs) | cleaved form of PARP, caspase-3, caspase-7 in hESCs [2] | cytotoxic effect (LDH release) in hESCs (hESCs (H9)) | LDH assay positive, hESCs (hESCs (H9)) | cytotoxic effect (LDH release) in hBMMSCs [3] | cleaved form of apoptosis markers in hESC-MSCs [4] |
| --- | --- | --- | --- | --- | --- | --- | --- | --- |
| CC(=O)O[C@H]1C[C@H](O[C@H]2[C@@H](O)C[C@H](O[C@H]3[C@@H](O)C[C@H](O[C@H]4CC[C@@]5(C)[C@H](CC[C@@H]6[C@@H]5C[C@@H](O)[C@]5(C)[C@@H](C7=CC(=O)OC7)CC[C@]65O)C4)O[C@@H]3C)O[C@@H]2C)O[C@H](C)[C@H]1O[C@@H]1O[C@H](CO)[C@@H](O)[C@H](O)[C@H]1O [Lanatoside C, lanatoside C] | −/+ (10% positive cells) | Neither Digoxin nor lanatoside C affected the survival | induced dramatic cell death | increases in the cleaved form | significantly induced a cytotoxic effect | +++ (more than 70% positive cells) | no cytotoxic effects | no cleaved form of the apoptosis markers was detected |
| C[C@H]1O[C@@H](O[C@H]2[C@@H](O)C[C@H](O[C@H]3[C@@H](O)C[C@H](O[C@H]4CC[C@@]5(C)[C@H](CC[C@@H]6[C@@H]5C[C@@H](O)[C@]5(C)[C@@H](C7=CC(=O)OC7)CC[C@]65O)C4)O[C@@H]3C)O[C@@H]2C)C[C@H](O)[C@@H]1O [Digoxin, digoxin] | −/+ (10% positive cells) | Neither Digoxin nor lanatoside C affected the survival | induced dramatic cell death | increases in the cleaved form | significantly induced a cytotoxic effect | +++ (more than 70% positive cells) | no cytotoxic effects | no cleaved form of the apoptosis markers was detected |
